Measurements taken from US8263589B2, “Inhibitors of protein aggregation” (Wista Laboratories Ltd., priority 2006, dated 2012).
Read-outs that look alike come from different tables or passages of the source.

How the values were obtained:
[1] = molecular target: T1, α-synuclein (fsyn binding to solid phase tsyn) (Homo sapiens, UniProt P37840); test: Solid phase ELISA assay for synuclein-synuclein binding
T1 construct: full-length α-synuclein (fsyn) was added in the aqueous phase; The core aggregation domain of α-synuclein (amino acids 31-109) was expressed with an N-terminal polyhistidine tag; polyhistidine (N); made in house; host or cells: E. coli
Protocol: A solid phase assay was used to measure self-association of α-synuclein. tsyn diluted in carbonate buffer (pH 8.5) was bound to the assay plate, and full-length α-synuclein (fsyn) was added in the aqueous phase. The aqueous phase binding buffer was 50 mM Na-phosphate, pH 6.0, 20 mM NaCl, 0.05% Tween-20, 1% fish skin gelatine.
The two α-synuclein proteins were also used in a binding assay. The tsyn is bound in the solid phase, and full-length fsyn is added in the aqueous phase. […]

[2] = molecular target: T2, assembled tsyn (core aggregation domain of α-synuclein, amino acids 31-109) (Homo sapiens, UniProt P37840); test: Fluorescence assay of disruption of assembled tsyn (thioflavine T / primulin); format: biochemical
T2 construct: The core aggregation domain of α-synuclein (amino acids 31-109) was expressed with an N-terminal polyhistidine tag; polyhistidine (N); made in house; host or cells: E. coli
Protocol: (§1) α-Synuclein proteins (tsyn or fsyn) were incubated at 37° C. for the times indicated in Figure legends with mixing to induce fibril formation. In some cases, 50 μg/ml heparin was included to enhance fibril formation.
(§2) Samples of 10 μl were then diluted to 100 μl with water, plus thioflavine T or primulin at 1 μM, or 0.2 or 5 μM in some cases. Fluorescence excitation spectra were measured in 96 well plates in a Varian Carey Eclipse Fluorescence Spectrophotometer, with the emission wavelength at 480 nm. Excitation spectra were corrected for the signal measured without tsyn and the peak signal measured from the spectra. The data were normalised to the value measured without compound and P50 values measured from plots of normalised fluorescence against concentration of compound.
The effect of the compounds on thioflavine T and primulin fluorescence could be due to competition for the fluorescence ligand rather than disruption of the fibrils. To test this, the experiment was done at three different concentrations of fluorophore, since the P50 will be dependent on fluorophore concentration only if the effect is due to competition.

[3] = molecular target: α-synuclein (SSFsyn) in NIE-115 cells (Homo sapiens, UniProt P37840); test: Cell based assay for α-synuclein aggregation (SSFsyn in NIE-115 cells differentiated with dbcAMP, immunoblot mAb 42); design: species or system mouse; settings: for EC50: ratio of α-synuclein to non-specific band falls to 50% of dbcAMP alone, immunoblot mAb 42, read-out: EC50, inhibition of FSyn expression in NIE cells differentiated with dbcAMP
Protocol: The cell based assay employed a mouse neuroblastoma cell line NIE-115 that had been engineered to express full-length α-synuclein incorporating an N-terminal signal sequence (SSfsyn) to target incorporation of the protein into the membrane (see WO02/059150). When the cells were differentiated with dibutyryl cyclicAMP (dbcAMP) (1 mM) expression of the α-synuclein protein was increased.
α-synuclein protein was detected by immunoblot using various anti-α-synuclein antibodies. These included: mAb 42 (BD Biosciences Cat No. 610787) that recognises an epitope within tsyn (residues 31-109 of α-synuclein). In addition to α-synuclein, mAb 42 also reacts non-specifically with a protein of higher molecular mass (the protein is not recognised by other anti-α-synuclein antibodies). This protein was used as an estimate of cell numbers as the level of this protein in cells correlates with cell density. Drugs were tested with these cells and an inhibitory activity (EC50) was calculated by determining the drug concentration in which the ratio of α-synuclein to the non-specific band fell to 50% of the value for cells treated with dbcAMP alone.
The timing of the addition of the dbcAMP and drug was varied and the length of time that the cells are left in the presence of drug+dbcAMP before collecting cells was also be varied.

[4] = molecular target: T3, assembled fsyn (full-length α-synuclein) (Homo sapiens, UniProt P37840); test: Fluorescence assay of disruption of assembled fsyn (thioflavine T / primulin); format: biochemical; settings: assembled 47 h with heparin, compound 1 h, read-out: P50 for inhibition of α-synuclein-dependent fluorescence
T3 construct: Full-length α-synuclein (syn) was expressed without a tag, and purified by ion exchange chromatography; made in house; host or cells: E. coli
Protocol: as §1, §2

parkinsonian tremor = settings: cited from earlier work
[5] = 1 μM tsyn-16 (solid phase), 5 μM fsyn-20 (aqueous phase), 50 mM sodium phosphate pH 6.0, 20 mM NaCl, read-out: B50 (μM) in α-synuclein binding assay
[6] = tsyn-16 assembled with heparin (50 μg/ml), primulin 1 μM, mean ± SEM (n), read-out: P50 (μM) using primulin
[7] = tsyn-16 assembled with heparin (50 μg/ml), thioflavine T 1 μM, mean ± SEM (n), read-out: P50 (μM) using thioflavone T
[8] = assembled tsyn, primulin 0.2 μM, read-out: P50 (mean), effect of fluorophore concentration
[9] = assembled tsyn, primulin 1.0 μM, read-out: P50 (mean), effect of fluorophore concentration
[10] = assembled tsyn, primulin 5.0 μM, read-out: P50 (mean), effect of fluorophore concentration
[11] = assembled tsyn, thioflavine T 0.2 μM, read-out: P50 (mean), effect of fluorophore concentration
[12] = assembled tsyn, thioflavine T 1.0 μM, read-out: P50 (mean), effect of fluorophore concentration
[13] = assembled tsyn, thioflavine T 5.0 μM, read-out: P50 (mean), effect of fluorophore concentration
[14] = tsyn-13, primulin 1 μM, assembled 20 h with heparin, compound 1 h, read-out: P50 for inhibition of α-synuclein-dependent fluorescence
[15] = tsyn-13, thioflavine T 1 μM, assembled 20 h with heparin, compound 1 h, read-out: P50 for inhibition of α-synuclein-dependent fluorescence

| Compound | IC50 [1, 5] [µM] | IC50 [2, 6] [µM] | IC50 [2, 7] [µM] | activity in the synuclein-synuclein binding assay [1] | EC50 [3] [nM] | LD50 (NIE cells) [µM] | also measured |
| --- | --- | --- | --- | --- | --- | --- | --- |
| O=c1c(O)c(-c2ccc(O)c(O)c2)oc2ccccc12 [3,3′,4′-Trihydroxy-flavone, reference compound] | 43.1 |  |  |  |  |  |  |
| O=c1cc(-c2ccccc2)oc2cc(O)ccc12 [7-Hydroxy-flavone, reference compound] |  |  |  |  |  |  | IC50 [2]: > 50 µM; IC50 ([2]; P50 (μM) using primulin, tsyn-16 assembled with heparin (50 μg/ml), primulin 1 μM, mean ± SEM (n)): > 50 µM; IC50 [1]: 35.3 µM |
| Cc1c(-c2ccccc2)oc2cc(O)ccc2c1=O [7-hydroxy-3-methyl-flavone, reference compound] | 141 |  |  |  |  |  |  |
| CN(C)c1ccc2nc3ccc(N)cc3[s+]c2c1 [Azure A, reference compound] | > 500 | 17.9 ± 2 | 3.8 ± 0.9 | inactive | 320 | 8.8 |  |
| CNc1ccc2nc3ccc(N(C)C)cc3[s+]c2c1 [Azure B, reference compound] | > 500 |  |  | inactive | 250 | 0.8 |  |
| O=c1cc(-c2ccccc2)oc2cc(O)c(O)c(O)c12 [Baicalein, reference compound] | 2.5 | 28.2 | 47.6 |  |  |  |  |
| CCc1cc(N(CC)CC)cc2[s+]c3cc(N(CC)CC)cc(CC)c3nc12 [DEETC, 1,9-Diethyl-ethyl-thioninium chloride] | 0.4 |  |  | active | 4 ± 1 | 1.0 |  |
| CCc1cc(N(C)C)cc2[s+]c3cc(N(C)C)cc(CC)c3nc12 [DEMTC, 1,9-Diethyl-methyl-thioninium chloride] | 0.8 ± 0.4 |  |  | active |  | 3 |  |
| CCN(CC)c1cc(C)c2nc3c(C)cc(N(CC)CC)cc3[s+]c2c1 [DMETC] | 0.5 ± 0.1 | 5 ± 0.9 | 0.9 ± 0.2 | active | 50 ± 40 | 6 |  |
| Cc1cc(N(C)C)cc2[s+]c3cc(N(C)C)cc(C)c3nc12 [DMMTC, 1,9-Dimethyl-methyl-thioninium chloride] | 4.9 | 20.7 ± 7.8 | 0.2 | active | 100 ± 20 | 1.2 |  |
| CCN(CC)c1ccc2nc3ccc(N(CC)CC)cc3[s+]c2c1 [ETC, Ethyl-thioninium chloride] | 3.8 ± 0.3 | 26 ± 6 | 7.3 ± 3.8 | active | 80 ± 20 | 38 | IC50 [2, 8]: 41.7 µM; IC50 [2, 9]: 34 µM; IC50 [2, 10]: 32.3 µM; IC50 [2, 11]: 3.2 µM; IC50 [2, 12]: 9 µM; IC50 [2, 13]: 17.6 µM; IC50 [2, 14]: 24.1 µM; IC50 [2, 15]: 30.3 µM; IC50 ([4]; fsyn-14, primulin): 30.6 µM; IC50 ([4]; fsyn-14, thioflavine T): 25.3 µM |
| O=c1c(O)c(-c2ccc(O)c(O)c2)oc2cc(O)ccc12 [Fisetin, reference compound] | 88.2 |  |  |  |  |  |  |
| COc1cc(-c2oc3cc(O)ccc3c(=O)c2O)ccc1O [Geraldol, reference compound] | 60.8 | > 50 | > 50 |  |  |  |  |
| CN(C)c1ccc2nc3ccc(N(C)C)cc3[s+]c2c1 [MTC, methyl-thioninium chloride] | 131 ± 15 | 30.4 ± 3 | 15.4 ± 3.7 | active |  |  | IC50 [2, 8]: 41.7 µM; IC50 [2, 9]: 35.1 µM; IC50 [2, 10]: 31.2 µM; IC50 [2, 11]: 11.6 µM; IC50 [2, 12]: 12.7 µM; IC50 [2, 13]: 20.2 µM; IC50 [2, 14]: 12.9 µM; IC50 [2, 15]: 18.5 µM; IC50 ([4]; fsyn-14, primulin): 23.5 µM; IC50 ([4]; fsyn-14, thioflavine T): 3.8 µM; tolerability of oral administration (parkinsonian tremor; oral 8 grains (=518 mg)/day): discontinued due to side effects |
| COc1cc(O)c2c(=O)c(O)c(-c3ccc(O)c(O)c3)oc2c1 [Rhamnetin, reference compound] | 11.4 ± 9.7 | 34.7 | 39.4 |  |  | 31 | inhibitory activity in the cell based assay ([3]; NIE-115 SSFsyn cells with dbcAMP): inhibitory |
| O=c1c(O)c(-c2cc(O)c(O)c(O)c2)oc2cc(O)ccc12 [Robinetin, reference compound] | 39.2 | 27.6 | 21.1 |  |  |  |  |
| Cc1cc2nc3ccc(N(C)C)cc3[s+]c2cc1N [Tolonium chloride, Tolonium Chloride] | 3.3 ± 0.3 | 8.8 ± 3.3 | 1.5 ± 0.2 | active |  | 1.2 |  |
| Thionine | 32.2 ± 11.7 | 23 ± 2.2 | 3.8 ± 0.3 | active |  |  | effect on Parkinsonian tremor (parkinsonian tremor; 4 individuals, MTC intravenously 1 or 2 mg/kg): gave no result |
